{"source": "paper doi:10.1101/2024.08.19.608619", "about": "“Discovery of potent SARS-CoV-2 nsp3 macrodomain inhibitors uncovers lack of translation to cellular antiviral response” (bioRxiv, 2024)", "key": {"LogD": {"assay": "LogD", "settings": "pH 7.4, In vitro LogD"}, "CDK7/cyclinH/MAT1(h)": {"target": "CDK7/cyclinH/MAT1(h) (Homo sapiens, UniProt P50613)", "sequence (P50613 whole entry)": "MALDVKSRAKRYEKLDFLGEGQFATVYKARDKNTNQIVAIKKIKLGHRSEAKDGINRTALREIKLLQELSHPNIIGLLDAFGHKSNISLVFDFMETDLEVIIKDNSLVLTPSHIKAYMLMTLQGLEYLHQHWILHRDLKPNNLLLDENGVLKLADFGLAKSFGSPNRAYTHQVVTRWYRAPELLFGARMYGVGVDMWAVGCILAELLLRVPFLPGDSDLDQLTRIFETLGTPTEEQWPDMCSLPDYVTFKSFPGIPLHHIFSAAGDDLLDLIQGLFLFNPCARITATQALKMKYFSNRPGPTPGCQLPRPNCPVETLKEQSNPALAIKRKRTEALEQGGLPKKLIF", "sequence (P51946 whole entry partner)": "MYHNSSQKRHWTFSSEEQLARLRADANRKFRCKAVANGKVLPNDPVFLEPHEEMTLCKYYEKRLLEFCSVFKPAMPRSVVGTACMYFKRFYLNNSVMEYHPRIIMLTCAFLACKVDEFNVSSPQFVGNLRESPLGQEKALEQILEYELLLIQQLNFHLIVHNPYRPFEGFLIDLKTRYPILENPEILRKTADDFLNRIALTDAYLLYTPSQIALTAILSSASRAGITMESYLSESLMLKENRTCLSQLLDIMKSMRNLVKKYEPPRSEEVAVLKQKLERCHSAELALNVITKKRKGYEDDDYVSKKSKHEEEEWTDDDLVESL", "sequence (P51948 whole entry partner)": "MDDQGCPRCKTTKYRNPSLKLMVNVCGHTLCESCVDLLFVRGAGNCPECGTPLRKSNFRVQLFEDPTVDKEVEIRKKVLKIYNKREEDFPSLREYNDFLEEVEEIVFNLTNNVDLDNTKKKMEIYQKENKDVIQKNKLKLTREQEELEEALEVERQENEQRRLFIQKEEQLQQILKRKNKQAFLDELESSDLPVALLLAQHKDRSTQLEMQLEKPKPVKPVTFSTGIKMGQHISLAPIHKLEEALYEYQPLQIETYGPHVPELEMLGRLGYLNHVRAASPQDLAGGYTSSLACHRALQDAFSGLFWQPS", "assay": "biochemical", "design": "In vitro kinase panel profiling, per cent remaining kinase activity at 10 uM", "settings": "atp_concentration=90, read-out: % of control remaining", "source_text": "(§1) We derisk potential for off-target activity by profiling the compound in a CEREP panel, a standard secondary pharmacology assessment, as well as a kinase panel to derisk a potential hinge-binding motif in our leads, and a PARP panel to derisk activity against human […]. Reassuringly, the compounds are selective, with the only off-targets being moderate human CHRM2 and KOR receptors activity associated with ASAP-0011198."}, "CDK9/cyclin T1(h)": {"target": "CDK9/cyclin T1(h) (Homo sapiens, UniProt P50750)", "assay": "biochemical", "design": "In vitro kinase panel profiling, per cent remaining kinase activity at 10 uM", "settings": "atp_concentration=45, read-out: % of control remaining", "source_text": "as §1"}, "IKKα(h)": {"target": "T1, IKKα(h) (Homo sapiens, UniProt O15111)", "T1 construct": "gene CHUK", "T1 sequence (O15111 1-745)": "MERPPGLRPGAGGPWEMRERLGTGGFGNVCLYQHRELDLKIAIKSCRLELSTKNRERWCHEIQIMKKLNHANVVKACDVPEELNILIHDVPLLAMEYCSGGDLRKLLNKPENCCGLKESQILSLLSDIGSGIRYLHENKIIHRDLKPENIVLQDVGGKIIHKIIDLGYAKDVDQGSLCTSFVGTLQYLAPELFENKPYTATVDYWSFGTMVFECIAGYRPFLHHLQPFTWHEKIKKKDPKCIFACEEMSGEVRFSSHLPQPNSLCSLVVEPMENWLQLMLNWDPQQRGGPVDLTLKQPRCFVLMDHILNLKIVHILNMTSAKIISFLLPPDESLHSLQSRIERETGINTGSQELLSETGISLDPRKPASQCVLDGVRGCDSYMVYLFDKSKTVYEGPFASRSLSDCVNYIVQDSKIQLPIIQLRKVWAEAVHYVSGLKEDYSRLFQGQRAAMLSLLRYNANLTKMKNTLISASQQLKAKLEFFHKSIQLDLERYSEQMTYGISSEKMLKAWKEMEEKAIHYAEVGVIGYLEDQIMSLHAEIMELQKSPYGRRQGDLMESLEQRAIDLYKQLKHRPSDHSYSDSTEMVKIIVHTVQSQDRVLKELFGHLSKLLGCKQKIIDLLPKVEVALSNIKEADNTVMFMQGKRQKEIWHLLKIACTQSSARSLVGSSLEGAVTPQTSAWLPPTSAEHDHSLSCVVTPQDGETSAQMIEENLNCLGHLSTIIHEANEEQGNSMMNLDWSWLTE", "assay": "biochemical", "design": "In vitro kinase panel profiling, per cent remaining kinase activity at 10 uM", "settings": "atp_concentration=10, read-out: % of control remaining", "source_text": "as §1"}, "JAK2(h)": {"target": "JAK2(h) (Homo sapiens, UniProt O60674)", "assay": "biochemical", "design": "In vitro kinase panel profiling, per cent remaining kinase activity at 10 uM", "settings": "atp_concentration=45, read-out: % of control remaining", "source_text": "as §1"}, "KDR(h)": {"target": "KDR(h) (Homo sapiens, UniProt P35968)", "sequence (P35968 whole entry)": "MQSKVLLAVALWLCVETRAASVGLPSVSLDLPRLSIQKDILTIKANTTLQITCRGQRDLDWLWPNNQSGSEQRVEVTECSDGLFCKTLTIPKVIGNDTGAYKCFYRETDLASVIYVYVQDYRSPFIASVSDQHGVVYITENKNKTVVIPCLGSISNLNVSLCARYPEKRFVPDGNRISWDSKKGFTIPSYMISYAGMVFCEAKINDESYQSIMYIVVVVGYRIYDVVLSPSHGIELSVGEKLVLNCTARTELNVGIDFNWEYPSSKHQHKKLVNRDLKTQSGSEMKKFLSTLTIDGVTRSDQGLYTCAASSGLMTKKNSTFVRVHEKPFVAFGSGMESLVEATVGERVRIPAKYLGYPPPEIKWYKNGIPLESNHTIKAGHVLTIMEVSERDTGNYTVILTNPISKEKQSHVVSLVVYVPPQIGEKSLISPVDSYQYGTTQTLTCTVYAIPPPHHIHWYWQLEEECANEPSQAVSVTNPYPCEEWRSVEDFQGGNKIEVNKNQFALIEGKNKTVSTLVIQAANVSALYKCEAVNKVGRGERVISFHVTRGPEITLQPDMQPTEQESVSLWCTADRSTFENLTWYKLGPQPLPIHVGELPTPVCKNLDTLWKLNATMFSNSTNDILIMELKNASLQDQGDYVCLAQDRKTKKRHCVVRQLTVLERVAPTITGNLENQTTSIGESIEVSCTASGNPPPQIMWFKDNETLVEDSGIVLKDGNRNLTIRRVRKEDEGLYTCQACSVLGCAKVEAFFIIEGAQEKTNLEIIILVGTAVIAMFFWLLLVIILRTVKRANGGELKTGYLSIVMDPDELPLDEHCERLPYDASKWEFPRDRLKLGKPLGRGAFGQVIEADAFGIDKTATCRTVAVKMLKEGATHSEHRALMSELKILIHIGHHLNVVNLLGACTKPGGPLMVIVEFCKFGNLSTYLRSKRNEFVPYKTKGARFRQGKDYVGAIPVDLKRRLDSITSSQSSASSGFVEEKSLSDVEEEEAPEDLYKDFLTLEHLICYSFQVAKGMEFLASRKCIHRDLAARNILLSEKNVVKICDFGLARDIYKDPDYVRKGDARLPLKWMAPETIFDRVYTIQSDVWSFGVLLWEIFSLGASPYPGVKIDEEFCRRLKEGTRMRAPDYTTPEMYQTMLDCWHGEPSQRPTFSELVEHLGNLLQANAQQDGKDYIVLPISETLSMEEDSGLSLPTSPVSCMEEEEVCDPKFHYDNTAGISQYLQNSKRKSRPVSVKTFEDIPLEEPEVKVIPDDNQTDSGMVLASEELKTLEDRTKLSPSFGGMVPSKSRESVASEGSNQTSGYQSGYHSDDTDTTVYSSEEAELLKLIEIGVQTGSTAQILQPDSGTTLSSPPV", "assay": "biochemical", "design": "In vitro kinase panel profiling, per cent remaining kinase activity at 10 uM", "settings": "atp_concentration=90, read-out: % of control remaining", "source_text": "as §1"}, "MSK2(h)": {"target": "T2, MSK2(h) (Homo sapiens, UniProt O75676)", "T2 construct": "gene RPS6KA4", "assay": "biochemical", "design": "In vitro kinase panel profiling, per cent remaining kinase activity at 10 uM", "settings": "atp_concentration=45, read-out: % of control remaining", "source_text": "as §1"}, "PRAK(h)": {"target": "T3, PRAK(h) (Homo sapiens, UniProt Q8IW41)", "T3 construct": "gene MAPKAPK5", "T3 sequence (Q8IW41 1-473)": "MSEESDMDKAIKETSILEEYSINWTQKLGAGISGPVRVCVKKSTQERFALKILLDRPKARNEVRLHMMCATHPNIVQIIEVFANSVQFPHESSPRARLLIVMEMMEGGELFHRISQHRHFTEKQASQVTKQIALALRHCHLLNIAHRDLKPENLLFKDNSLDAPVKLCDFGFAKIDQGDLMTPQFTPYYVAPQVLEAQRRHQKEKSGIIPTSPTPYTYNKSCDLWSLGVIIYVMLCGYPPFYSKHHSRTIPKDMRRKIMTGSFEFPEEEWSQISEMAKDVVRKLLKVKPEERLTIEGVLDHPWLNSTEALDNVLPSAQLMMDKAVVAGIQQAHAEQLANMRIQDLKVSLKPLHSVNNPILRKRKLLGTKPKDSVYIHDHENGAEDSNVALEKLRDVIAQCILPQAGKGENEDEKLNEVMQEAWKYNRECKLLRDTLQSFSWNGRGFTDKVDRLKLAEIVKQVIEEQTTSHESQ", "assay": "biochemical", "design": "In vitro kinase panel profiling, per cent remaining kinase activity at 10 uM", "settings": "atp_concentration=15, read-out: % of control remaining", "source_text": "as §1"}, "Pim-1(h)": {"target": "T4, Pim-1(h) (Homo sapiens, UniProt P11309)", "T4 construct": "gene PIM1", "assay": "biochemical", "design": "In vitro kinase panel profiling, per cent remaining kinase activity at 10 uM", "settings": "atp_concentration=90, read-out: % of control remaining", "source_text": "as §1"}, "Plk3(h)": {"target": "Plk3(h) (Homo sapiens, UniProt Q9H4B4)", "sequence (Q9H4B4 whole entry)": "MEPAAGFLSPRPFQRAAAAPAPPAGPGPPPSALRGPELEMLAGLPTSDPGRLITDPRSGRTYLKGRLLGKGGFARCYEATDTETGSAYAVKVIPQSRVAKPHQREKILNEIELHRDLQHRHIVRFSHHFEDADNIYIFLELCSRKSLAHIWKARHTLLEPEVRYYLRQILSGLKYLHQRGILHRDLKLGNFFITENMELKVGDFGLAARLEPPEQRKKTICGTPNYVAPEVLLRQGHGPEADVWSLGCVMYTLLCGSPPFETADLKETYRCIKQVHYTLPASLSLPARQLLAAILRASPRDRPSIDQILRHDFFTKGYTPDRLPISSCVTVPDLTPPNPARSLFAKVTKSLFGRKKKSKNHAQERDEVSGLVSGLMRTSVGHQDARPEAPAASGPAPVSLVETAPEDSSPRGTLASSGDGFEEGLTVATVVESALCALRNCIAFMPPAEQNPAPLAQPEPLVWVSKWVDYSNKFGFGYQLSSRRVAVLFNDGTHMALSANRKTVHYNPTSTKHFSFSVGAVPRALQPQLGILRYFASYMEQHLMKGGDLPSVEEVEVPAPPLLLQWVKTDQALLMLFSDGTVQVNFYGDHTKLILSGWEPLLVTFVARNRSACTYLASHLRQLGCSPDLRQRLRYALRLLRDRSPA", "assay": "biochemical", "design": "In vitro kinase panel profiling, per cent remaining kinase activity at 10 uM", "settings": "atp_concentration=70, read-out: % of control remaining", "source_text": "as §1"}, "ROCK-I(h)": {"target": "T5, ROCK-I(h) (Homo sapiens, UniProt Q13464)", "T5 construct": "gene ROCK1", "T5 sequence (Q13464 whole entry)": "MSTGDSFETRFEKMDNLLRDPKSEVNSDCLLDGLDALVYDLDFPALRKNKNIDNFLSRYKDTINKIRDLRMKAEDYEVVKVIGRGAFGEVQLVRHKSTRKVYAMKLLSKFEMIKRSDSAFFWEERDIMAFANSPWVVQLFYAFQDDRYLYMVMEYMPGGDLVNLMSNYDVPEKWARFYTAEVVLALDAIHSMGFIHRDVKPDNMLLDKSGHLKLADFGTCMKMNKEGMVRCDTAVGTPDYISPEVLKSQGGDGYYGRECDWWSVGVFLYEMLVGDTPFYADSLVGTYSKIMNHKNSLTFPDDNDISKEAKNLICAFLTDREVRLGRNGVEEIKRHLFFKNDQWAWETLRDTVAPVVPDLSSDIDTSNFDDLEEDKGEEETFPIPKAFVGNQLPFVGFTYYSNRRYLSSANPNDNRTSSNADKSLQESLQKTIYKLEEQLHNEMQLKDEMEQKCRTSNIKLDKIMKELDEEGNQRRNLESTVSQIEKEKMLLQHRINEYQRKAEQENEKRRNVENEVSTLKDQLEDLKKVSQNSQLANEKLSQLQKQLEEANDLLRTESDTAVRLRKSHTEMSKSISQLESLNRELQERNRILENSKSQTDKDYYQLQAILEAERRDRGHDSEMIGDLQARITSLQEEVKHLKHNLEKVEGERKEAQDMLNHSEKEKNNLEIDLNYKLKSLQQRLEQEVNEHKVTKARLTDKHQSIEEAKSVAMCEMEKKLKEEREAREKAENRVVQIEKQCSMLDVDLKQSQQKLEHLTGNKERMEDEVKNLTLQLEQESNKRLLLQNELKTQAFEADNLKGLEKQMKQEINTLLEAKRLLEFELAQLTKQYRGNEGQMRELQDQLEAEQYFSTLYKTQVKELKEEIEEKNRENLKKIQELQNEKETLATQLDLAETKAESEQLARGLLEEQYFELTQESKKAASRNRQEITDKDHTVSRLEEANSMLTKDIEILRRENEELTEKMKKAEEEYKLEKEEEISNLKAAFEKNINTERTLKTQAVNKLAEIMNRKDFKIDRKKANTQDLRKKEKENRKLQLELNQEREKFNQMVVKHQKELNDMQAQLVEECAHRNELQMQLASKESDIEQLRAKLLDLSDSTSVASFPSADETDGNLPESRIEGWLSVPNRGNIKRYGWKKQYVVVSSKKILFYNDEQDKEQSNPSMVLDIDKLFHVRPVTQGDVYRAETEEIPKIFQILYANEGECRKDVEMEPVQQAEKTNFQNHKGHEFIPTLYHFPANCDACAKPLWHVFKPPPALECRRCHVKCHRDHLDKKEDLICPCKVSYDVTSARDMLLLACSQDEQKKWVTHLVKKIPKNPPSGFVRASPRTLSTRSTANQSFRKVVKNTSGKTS", "assay": "biochemical", "design": "In vitro kinase panel profiling, per cent remaining kinase activity at 10 uM", "settings": "atp_concentration=70, read-out: % of control remaining", "source_text": "as §1"}, "p70S6K(h)": {"target": "T6, p70S6K(h) (Homo sapiens, UniProt P23443)", "T6 construct": "gene RPS6KB1", "T6 sequence (P23443 whole entry)": "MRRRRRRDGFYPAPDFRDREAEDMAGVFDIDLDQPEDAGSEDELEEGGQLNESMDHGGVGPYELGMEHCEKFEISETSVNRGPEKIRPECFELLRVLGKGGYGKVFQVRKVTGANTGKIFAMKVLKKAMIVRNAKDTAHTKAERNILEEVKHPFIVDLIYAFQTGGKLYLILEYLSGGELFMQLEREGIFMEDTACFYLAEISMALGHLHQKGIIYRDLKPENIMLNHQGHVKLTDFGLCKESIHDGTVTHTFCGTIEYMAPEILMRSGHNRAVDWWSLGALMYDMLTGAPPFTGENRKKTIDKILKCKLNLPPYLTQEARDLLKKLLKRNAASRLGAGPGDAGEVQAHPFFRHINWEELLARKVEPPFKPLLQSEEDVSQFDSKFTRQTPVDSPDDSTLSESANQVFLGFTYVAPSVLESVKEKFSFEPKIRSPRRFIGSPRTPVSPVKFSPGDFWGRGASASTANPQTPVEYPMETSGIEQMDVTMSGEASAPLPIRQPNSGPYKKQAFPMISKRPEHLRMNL", "assay": "biochemical", "design": "In vitro kinase panel profiling, per cent remaining kinase activity at 10 uM", "settings": "atp_concentration=15, read-out: % of control remaining", "source_text": "as §1"}, "[1]": {"assay": "In vitro kinetic solubility", "settings": "In vitro kinetic solubility, ph 7.4"}, "[2]": {"assay": "Permeability Papp (AB) MDR1/MDCKII", "settings": "In vitro MDR1-MDCKII permeability, mean; for perc_recovery_a_to_b_mean: recovery A to B"}}, "note": "Where two headings read alike, the source gives them in different places."}
{"smiles": "CC(C)C(Nc1ncnc2[nH]ccc12)c1ccc2c(c1)S(=O)(=O)CCC2", "note": "(centres unmarked) [ASAP-0008327]", "values": [{"measurement": "logd", "setting": "LogD; pH 7.4, logd", "value": 2.5}, {"measurement": "remaining activity at 10 µM", "setting": "CDK7/cyclinH/MAT1(h); batch_name=ASAP-0008327-001", "value": 85, "unit": "%"}, {"measurement": "remaining activity at 10 µM", "setting": "CDK9/cyclin T1(h); batch_name=ASAP-0008327-001", "value": 114, "unit": "%"}, {"measurement": "remaining activity at 10 µM", "setting": "IKKα(h); batch_name=ASAP-0008327-001", "value": 91, "unit": "%"}, {"measurement": "remaining activity at 10 µM", "setting": "JAK2(h); batch_name=ASAP-0008327-001", "value": 110, "unit": "%"}, {"measurement": "remaining activity at 10 µM", "setting": "KDR(h); batch_name=ASAP-0008327-001", "value": 82, "unit": "%"}, {"measurement": "remaining activity at 10 µM", "setting": "MSK2(h); batch_name=ASAP-0008327-001", "value": 99, "unit": "%"}, {"measurement": "remaining activity at 10 µM", "setting": "PRAK(h); batch_name=ASAP-0008327-001", "value": 107, "unit": "%"}, {"measurement": "remaining activity at 10 µM", "setting": "Pim-1(h); batch_name=ASAP-0008327-001", "value": 80, "unit": "%"}, {"measurement": "remaining activity at 10 µM", "setting": "Plk3(h); batch_name=ASAP-0008327-001", "value": 103, "unit": "%"}, {"measurement": "remaining activity at 10 µM", "setting": "ROCK-I(h); batch_name=ASAP-0008327-001", "value": 110, "unit": "%"}, {"measurement": "remaining activity at 10 µM", "setting": "p70S6K(h); batch_name=ASAP-0008327-001", "value": 98, "unit": "%"}, {"measurement": "solubility", "setting": "[1]; pH 7.4, solubility_mean", "value": 385, "unit": "µM"}, {"measurement": "perc_recovery_a_to_b_mean", "setting": "[2]", "value": 87.0, "unit": "%"}]}
{"smiles": "COc1ccc([C@@H](Cc2nnn[nH]2)NC(=O)c2ncnc3[nH]ccc23)cc1", "note": "[ASAP-0008340]", "values": [{"measurement": "logd", "setting": "LogD", "value": -0.1}, {"measurement": "remaining activity at 10 µM", "setting": "CDK7/cyclinH/MAT1(h); batch_name=ASAP-0008340-001", "value": 91, "unit": "%"}, {"measurement": "remaining activity at 10 µM", "setting": "CDK9/cyclin T1(h); batch_name=ASAP-0008340-001", "value": 117, "unit": "%"}, {"measurement": "remaining activity at 10 µM", "setting": "IKKα(h); batch_name=ASAP-0008340-001", "value": 99, "unit": "%"}, {"measurement": "remaining activity at 10 µM", "setting": "JAK2(h); batch_name=ASAP-0008340-001", "value": 102, "unit": "%"}, {"measurement": "remaining activity at 10 µM", "setting": "KDR(h); batch_name=ASAP-0008340-001", "value": 79, "unit": "%"}, {"measurement": "remaining activity at 10 µM", "setting": "MSK2(h); batch_name=ASAP-0008340-001", "value": 92, "unit": "%"}, {"measurement": "remaining activity at 10 µM", "setting": "PRAK(h); batch_name=ASAP-0008340-001", "value": 95, "unit": "%"}, {"measurement": "remaining activity at 10 µM", "setting": "Pim-1(h); batch_name=ASAP-0008340-001", "value": 91, "unit": "%"}, {"measurement": "remaining activity at 10 µM", "setting": "Plk3(h); batch_name=ASAP-0008340-001", "value": 102, "unit": "%"}, {"measurement": "remaining activity at 10 µM", "setting": "ROCK-I(h); batch_name=ASAP-0008340-001", "value": 93, "unit": "%"}, {"measurement": "remaining activity at 10 µM", "setting": "p70S6K(h); batch_name=ASAP-0008340-001", "value": 81, "unit": "%"}, {"measurement": "solubility_mean", "setting": "[1]", "value": 395, "unit": "µM"}, {"measurement": "papp_a_to_b_mean", "setting": "[2]; A to B", "value": 1.39, "unit": "×10⁻⁶ cm/s"}, {"measurement": "perc_recovery_a_to_b_mean", "setting": "[2]", "value": 89.1, "unit": "%"}]}
